Each structure is given as a SMILES string. Counter-ions that a name gives are not always drawn.

The target in this experiment is LC3B (Homo sapiens, UniProt Q9GZQ8). Briefly: Fluorescence Polarization (FP) Assay: displacement of FITC-labeled peptide from GST-LC3B. Format: binding. To be noted: Fluorescence Polarization assay; GST-LC3B 180 nM, FITC-labeled peptide 18 nM, 25° C.; read-out: IC50. The procedure: The compounds of the present invention for regulating the autophagy-related protein LC3B were tested by Fluorescence Polarization (FP) Assay.
Fluorescence Polarization (FP) Assay Test
As for `CN1CCC(NC=C2C(=O)CC(c3ccccc3)CC2=O)CC1` (centres unmarked) [Compound 142, 2-(((1-methylpiperidin-4-yl)amino)methylene)-5-phenylcyclohexane-1,3-dione], the IC50 lay within 15 to 100 µM.
Under `C=CCNC=C1C(=O)CC(c2ccccc2)CC1=O` (centres unmarked) [Compound 143, 2-((allylamino)methylene)-5-phenylcyclo-hexane-1,3-dione] stands 15 to 100 µM; under `COc1ccc(CNC=C2C(=O)CC(c3ccccc3)CC2=O)cc1` (centres unmarked) [Compound 145, 2-(((4-methoxybenzyl)amino)methylene)-5-phenylcyclo-hexane-1,3-dione], 100 to 1000 µM; under `COc1ccc(NC=C2C(=O)CC(c3ccccc3)CC2=O)cn1` (centres unmarked) [Compound 147, 2-(((6-methoxypyridin-3-yl)amino)methylene)-5-phenylcyclo-hexane-1,3-dione], 15 to 100 µM.
With `O=C1CC(c2ccccc2)CC(=O)C1=CNc1nc(C(=O)O)cs1` (centres unmarked) [Compound 148, 2-(((2,6-dioxo-4-phenylcyclo-hexylidene)methyl)amino) thiazole-4-carboxylic acid] the figure was < 3 µM; with `O=C1CC(c2ccccc2)CC(=O)C1=CNc1ncc([N+](=O)[O-])s1` (centres unmarked) [Compound 150, 2-(((5-nitrothiazol-2-yl)amino)methylene)-5-phenylcyclohexane-1,3-dione], < 3 µM; with `O=C1Oc2ccccc2C(=O)C1=CNCCN1CCN(CCO)CC1` [Compound 155, 3-(((2-(4-(2-hydroxyethyl)piperazin-1-yl)ethyl)amino)methylene) chromanone-2,4-dione], 15 to 100 µM.
With `O=C1Oc2ccc(-c3ccccc3)cc2C(=O)C1=CNCCN1CCN(CCO)CC1` [Compound 156, 3-(((2-(4-(2-hydroxyethyl)piperazin-1-yl)ethyl)amino)methylene)-6-phenylchromane-2,4-dione] the figure was 3 to 15 µM; with `CC(O)C(NC=C1C(=O)CC(c2ccccc2)CC1=O)C(=O)O` (centres unmarked) [Compound 158, 2-(((2,6-dioxo-4-phenylcyclo-hexylidene)methyl)amino)-3-hydroxybutanoic acid], 100 to 1000 µM.
In the case of `CC(NC=C1C(=O)CC(c2ccccc2)CC1=O)c1ccccn1` (centres unmarked) [Compound 160, 5-phenyl-2-(((1-(pyridin-2-yl)ethyl)amino)methylene) cyclohexane-1,3-dione], the IC50 lay in the range of 15 to 100 µM.
As to `O=C1CC(c2ccccc2)CC(=O)C1=CNCC1CCNCC1` (centres unmarked) [Compound 161, 5-phenyl-2-(((piperidin-4-ylmethyl)amino)methylene) cyclohexane-1,3-dione hydrochloride], the IC50 was in the range of 100 to 1000 µM.
With `CCOC(=O)[C@H](C)NC=C1C(=O)CC(c2ccccc2)CC1=O` (stereo partly drawn) [Compound 162, ethyl ((2,6-dioxo-4-phenylcyclo-hexylidene)methyl)-L-alaninate] the figure was 15 to 100 µM; with `O=C1CC(c2ccccc2)CC(=O)C1=CNC[C@@H](O)[C@H](O)[C@@H](O)[C@@H](O)CO` (stereo partly drawn) [Compound 163, 2-((((2R,3S,4S,5S)-2,3,4,5,6-pentahydroxyhexyl)amino)methylene)-5-phenylcyclohexane-1,3-dione], 100 to 1000 µM; with `CNCCNC=C1C(=O)CC(c2ccccc2)CC1=O` (centres unmarked) [Compound 164, 2-(((2-(methylamino)ethyl)amino)methylene)-5-phenylcyclohexane-1,3-dione hydrochloride], 3 to 15 µM.
Under `CCOC(=O)C(CS)NC=C1C(=O)CC(c2ccccc2)CC1=O` (centres unmarked) [Compound 169, ethyl ((2,6-dioxo-4-phenylcyclo-hexylidene)methyl) cysteinate] stands 3 to 15 µM; under `CN(C)CCCCNC=C1C(=O)CC(c2ccccc2)CC1=O` (centres unmarked) [Compound 170, 2-(((4-(dimethylamino)butyl)amino)methylene)-5-phenylcyclohexane-1,3-dione], 3 to 15 µM; under `CCN1CCC[C@H]1CNC=C1C(=O)CC(c2ccccc2)CC1=O` (stereo partly drawn) [Compound 171, 2-(((((S)-1-ethylpyrrolidin-2-yl)methyl)amino)methylene)-5-phenylcyclohexane-1,3-dione], 3 to 15 µM.
On to `NC1CC(NC=C2C(=O)CC(c3ccccc3)CC2=O)C1` (centres unmarked) [Compound 173, 2-(((3-aminocyclobutyl)amino)methylene)-5-phenylcyclohexane-1,3-dione hydrochloride], for which the IC50 was in the range of 15 to 100 µM.
As to `NCCNC=C1C(=O)CC(c2ccccc2)CC1=O` (centres unmarked) [Compound 175, 2-(((2-aminoethyl)amino)methylene)-5-phenylcyclo-hexane-1,3-dione hydrochloride], the IC50 is 3 to 15 µM.
With `CC(=O)NCCNC=C1C(=O)CC(c2ccccc2)CC1=O` (centres unmarked) [Compound 176, N-(2-(((2,6-dioxo-4-phenylcyclo-hexylidene)methyl)amino)ethyl) acetamide] the figure was 100 to 1000 µM.
With `NCCOC(=O)[C@H](Cc1ccccc1)NC=C1C(=O)CC(c2ccccc2)CC1=O` (stereo partly drawn) [Compound 178, 2-aminoethyl ((2,6-dioxo-4-phenylcyclo-hexylidene)methyl)-L-phenylalaninate hydrochloride] the figure was 15 to 100 µM.
With `CONC=C1C(=O)CC(c2ccccc2)CC1=O` (centres unmarked) [Compound 180, 2-((methoxyamino)methylene)-5-phenylcyclo-hexane-1,3-dione] the figure was 100 to 1000 µM; with `CC1(C)CC(=O)C(=CNCCN2CCN(CCO)CC2)C(=O)C1` [Compound 182, 2-(((2-(4-(2-hydroxyethyl)piperazin-1-yl)ethyl)amino)methylene)-5,5-dimethyl-cyclohexane-1,3-dione], 100 to 1000 µM; with `O=C1/C(=C/NCCN2CCN(CCO)CC2)Oc2ccccc21` [Compound 183, 2-(((2-(4-(2-hydroxyethyl)piperazin-1-yl)ethyl)amino)methylene) benzofuran-3(2H)-one], 100 to 1000 µM.
Turning to `Cc1cccc2[nH]cc(C3CC(=O)C(=CNCCN4CCN(CCO)CC4)C(=O)C3)c12` (centres unmarked) [Compound 184, 2-(((2-(4-(2-hydroxyethyl)piperazin-1-yl)ethyl)amino)methylene)-5-(4-methyl-1H-indol-3-yl)cyclohexane-1,3-dione], the IC50 fell in the range of 100 to 1000 µM.
Under `O=C1CC(c2cccc3[nH]cc(C4CC4)c23)CC(=O)C1=CNCCN1CCN(CCO)CC1` (centres unmarked) [Compound 185, 5-(3-cyclopropyl-1H-indol-4-yl)-2-(((2-(4-(2-hydroxyethyl)piperazin-1-yl)ethyl)amino)methylene) cyclohexane-1,3-dione] stands < 3 µM; under `COc1ccc2[nH]cc(C3CC(=O)C(=CNCCN4CCN(CCO)CC4)C(=O)C3)c2c1` (centres unmarked) [Compound 186, 2-(((2-(4-(2-hydroxyethyl)piperazin-1-yl)ethyl)amino)methylene)-5-(5-methoxy-1H-indol-3-yl)cyclohexane-1,3-dione], 3 to 15 µM; under `O=C1CC(c2ccccc2-c2ccccc2)CC(=O)C1=CNCCN1CCN(CCO)CC1` (centres unmarked) [Compound 187, 5-([1,1′-biphenyl]-2-yl)-2-(((2-(4-(2-hydroxyethyl)piperazin-1-yl)ethyl)amino)methylene) cyclohexane-1,3-dione], < 3 µM.
With `O=C1CC(c2ccccc2-c2ccncc2)CC(=O)C1=CNCCN1CCN(CCO)CC1` (centres unmarked) [Compound 188, 2-(((2-(4-(2-hydroxyethyl)piperazin-1-yl)ethyl)amino)methylene)-5-(2-(pyridin-4-yl)phenyl) cyclohexane-1,3-dione], the IC50 fell in the range of 3 to 15 µM.
Under `O=C1CC(c2ccccc2C2CC2)CC(=O)C1=CNCCN1CCN(CCO)CC1` (centres unmarked) [Compound 189, 5-(2-cyclopropylphenyl)-2-(((2-(4-(2-hydroxyethyl)piperazin-1-yl)ethyl)amino)methylene) cyclohexane-1,3-dione] stands < 3 µM.
Consider `O=C1CC(c2ccccc2)C(C(=O)N2CCOCC2)C(=O)C1=CNCCN1CCN(CCO)CC1` (centres unmarked) [Compound 190, 2-(((2-(4-(2-hydroxyethyl)piperazin-1-yl)ethyl)amino)methylene)-4-(morpholine-4-carbonyl)-5-phenylcyclo-hexane-1,3-dione], for which the IC50 fell in the range of 15 to 100 µM.
With `CCOC(=O)C1C(=O)/C(=C\NCCN2CCN(CCO)CC2)C(=O)CC1c1ccccc1Br` (centres unmarked) [Compound 191, ethyl-6-(2-bromophenyl)-3-(((2-(4-(2-hydroxyethyl)piperazin-1-yl)ethyl)amino)methylene)-2,4-dioxocyclohexane-1-carboxylate] the figure was < 3 µM; with `O=C1Nc2ccc(Cl)cc2C(=O)/C1=C/NCCN1CCN(CCO)CC1` [Compound 192, 6-chloro-3-(((2-(4-(2-hydroxyethyl)piperazin-1-yl)ethyl)amino)methylene) quinoline-2,4 (1H,3H)-dione], 3 to 15 µM; with `CN1C(=O)/C(=C\NCCN2CCN(CCO)CC2)C(=O)c2ccccc21` [Compound 193, 3-(((2-(4-(2-hydroxyethyl)piperazin-1-yl)ethyl)amino)methylene)-1-methylquinoline-2,4(1H,3H)-dione], 15 to 100 µM.
On to `COc1cccc2c1NC(=O)/C(=C\NCCN1CCN(CCO)CC1)C2=O` [Compound 194, 3-(((2-(4-(2-hydroxyethyl)piperazin-1-yl)ethyl)amino)methylene)-8-methoxyquinoline-2,4(1H,3H)-dione], for which the IC50 is 15 to 100 µM.
Under `O=C1Nc2c(F)cccc2C(=O)/C1=C/NCCN1CCN(CCO)CC1` [Compound 195, 8-fluoro-3-(((2-(4-(2-hydroxyethyl)piperazin-1-yl)ethyl)amino)methylene) quinoline-2,4 (1H,3H)-dione] stands 3 to 15 µM; under `COc1ccc2c(c1)C(=O)/C(=C/NCCN1CCN(CCO)CC1)C(=O)N2` [Compound 196, 3-(((2-(4-(2-hydroxyethyl)piperazin-1-yl)ethyl)amino)methylene)-6-methoxyquinoline-2,4(1H,3H)-dione], 3 to 15 µM.
Under `O=C1Nc2c(cccc2C(F)(F)F)C(=O)/C1=C/NCCN1CCN(CCO)CC1` [Compound 197, 3-(((2-(4-(2-hydroxyethyl)piperazin-1-yl)ethyl)amino)methylene)-8-(trifluoromethyl) quinoline-2,4(1H,3H)-dione] stands < 3 µM.

By IC50 is commonly meant the concentration that inhibits the measured activity by half.
